Assay results as given in PMC7946689, “Galactose-Modified PH-Sensitive Niosomes for Controlled Release and Hepatocellular Carcinoma Target Delivery of Tanshinone IIA” (AAPS PharmSciTech, 2021).
Read-outs that look alike come from different tables or passages of the source.

What was measured:
[1] = set-up: method as in PMID 28680091; settings: cited from earlier work
[2] = Biodistribution after tail vein injection; type: in vivo; settings: SD rats, 10 mg/kg, all time periods tested (0.083, 4, 12 h)
Protocol: Twenty-seven male SD rats were randomly divided into three groups and administered in the same way. Rats were sacrificed after 0.083, 4, and 12 h, respectively, and heart, liver, spleen, lung, and kidney tissues were collected immediately. Any residual blood on the tissue was washed with precooled normal saline, and the washed tissue was blotted up with filter paper and weighed. The tissue was then homogenized in 5 times the mass of precooled normal saline. Homogenized tissue samples were centrifuged at 9391.2×g for 5 min to separate the tissue homogenate and were stored at −20°C ([39]). After treatment of plasma and tissue homogenate, the obtained supernatant was concentrated by nitrogen blowing and determined by HPLC.

HCT8 cells = experiment: CCK8 cell viability assay; type: cell-based; settings: Homo sapiens, HCT-8, 24 h, equivalent tanshinone IIA dose
Protocol: (§1) A2780, HCT8, HepG2, and Huh7 cells were seeded in 96-well plates at a density of 4 × 10^4 cells per well for 24 h ([32]) and treated with complete medium containing a series of blank niosomes (NSVs, Gal-NSVs, pH-NSVs, Gal-pH-NSVs) for 24 h. Subsequently, the culture medium was discarded, and CCK8 solution was added to the cells. Then, cells were continuously cultured for 2 h at 37°C. The absorbance value of each well was measured at 450 nm by a microplate spectrophotometer (BIO-RAD xMark, USA). The control group and blank group were included in the experiment. […] Cell viability was calculated according to the following formula ([33]): Cell viability%=Atest−Ao/Acontrast−Ao×100%
(§2) In the formula, Atest is the absorbance value of the test group, Acontrast is the absorbance value of the control group, and A0 is the absorbance value of the blank group.
(§3) A2780, HCT8, HepG2, and Huh7 cells were seeded in 96-well plates for 24 h and treated with serial concentrations of tanshinone IIA solution (Free TanIIA) and tanshinone IIA-loaded niosomes (TanIIA-NSVs, Gal-TanIIA-NSVs, pH-TanIIA-NSVs, Gal-pH-TanIIA-NSVs) at an equivalent tanshinone IIA dose for 24 h. Then, the culture medium was discarded, CCK8 solution was added to the cells, and cells were continuously cultured for 2 h at 37°C. The absorbance value of each well was measured at 450 nm by a microplate spectrophotometer ([33]).

HepG2 cells [3] = experiment: CCK8 cell viability assay; type: cell-based; settings: Homo sapiens, 24 h, equivalent tanshinone IIA dose
Protocol: as §1, §2, §3

A2780 cells = experiment: CCK8 cell viability assay; type: cell-based; settings: Homo sapiens, 24 h, equivalent tanshinone IIA dose
Protocol: as §1, §2, §3

Huh7 cells = experiment: CCK8 cell viability assay; type: cell-based; settings: Homo sapiens, Huh-7, 24 h, equivalent tanshinone IIA dose
Protocol: as §1, §2, §3

[4] = Pharmacokinetics after tail vein injection; type: in vivo; settings: SD rats
Protocol: Twelve male SD rats (weighing 200–250 g) were randomly divided into three groups. Rats were fasted for 12 h but drank water freely before administration ([38]). The first, second, and third groups were injected with Free TanIIA, TanIIA-NSVs, and Gal-pH-TanIIA-NSVs at an equivalent tanshinone IIA dose of 10 mg/kg via tail vein, respectively. Orbital blood was taken at 0.083, 0.25, 0.5, 1, 2, 4, 6, 8, 12, and 24 h after administration. Blood was transferred to a centrifuge tube coated with heparin sodium and centrifuged at 9391.2×g for 5 min to prepare plasma that was stored at −20°C ([39]).
After treatment of plasma and tissue homogenate, the obtained supernatant was concentrated by nitrogen blowing and determined by HPLC.

HepG2 cells [5] = experiment: Cell apoptosis by flow cytometry (Annexin V-FITC/PI); type: cell-based; settings: 5 μg/mL tanshinone IIA equivalent, 24 h, control 57.33%
Protocol: HepG2 cells were seeded in 6-well plates at a density of 2 × 10^5 cells per well for 24 h and treated with tanshinone IIA solution (Free TanIIA) and tanshinone IIA-loaded niosomes (TanIIA-NSVs, Gal-pH-TanIIA-NSVs) at an equivalent tanshinone IIA dose of 5 μg/mL for 24 h. Another group was treated with PBS for the same duration as the control group. After incubation, the cell culture medium was transferred to a 2-mL centrifuge tube, and cells digested by a trypsin-EDTA solution were added to the cell culture medium collected previously. Subsequently, the cells were mixed, transferred to a centrifuge tube, and centrifuged at 1000×g for 5 min ([34]). The supernatant was discarded, and the cells were gently resuspended with PBS and counted. A certain amount of resuspended cells were centrifuged in a similar fashion, the supernatant was discarded (PBS was removed), and 500 μL of binding buffer was added. Then, the cells were gently resuspended, and 5 μL Annexin V-FITC was added. After mixing, 5 μL propidium iodide (PI) staining solution was added to the cells, gently mixed, and incubated for 10 min in the dark at room temperature (20–25°C). Flow cytometry was then performed ([35]).

HepG2 cells [6] = experiment: Cell cycle by flow cytometry (PI); type: cell-based; settings: 5 μg/mL tanshinone IIA equivalent, 24 h, control 28.98%
Protocol: The test method was performed according to the method provided with the apoptosis test until two centrifugations were completed, and the supernatant was discarded. Next, 1 mL of ice bath precooled 70% ethanol was added to fix the cells for 24 h at 4°C, then, the fixed cells were centrifuged at 1000×g for 5 min ([36]). After resuspending the cells, the cells were centrifuged and precipitated again, and the supernatant was discarded. A total of 500 μL PI staining solution was added to the cells, and the cells were slowly and sufficiently resuspended and bathed for 30 min in the dark at 37°C. Flow cytometry was completed within 24 h after staining ([37]).

[7] = set-up: method as in PMID 28680091; settings: cited from earlier work; remark: listed apart in the source
[8] = 10 mg/kg tanshinone IIA equivalent, tail vein

Drug level in kidney tissue [2]: relatively high drug levels
IC50 (HCT8 cells): 2.42 µg/mL
IC50 (HepG2 cells [3]): 2.26 µg/mL
IC50 (A2780 cells): 2.44 µg/mL
IC50 (Huh7 cells): 2.5 µg/mL
Plasma concentration by HPLC ([4]; 12 h after injection, 10 mg/kg): could not be detected
AUC0–t [4, 8]: 7.70 ± 1.51 (μg/mL)·h
AUC0–∞ [4, 8]: 8.81 ± 1.65 (μg/mL)·h
CL [4, 8]: 0.284 ± 0.026 (mg)/(μg/mL)/h
Vd [4, 8]: 1.26 ± 0.09 (mg)/(μg/mL)
half-life ([4]; male, rat, plasma, iv, 10 mg/kg tanshinone IIA equivalent, tail vein): 3.09 ± 0.59 h
MRT last ([4]; male, rat, plasma, iv, 10 mg/kg tanshinone IIA equivalent, tail vein, read-out: MRT0–t): 2.23 ± 0.2 h
MRT inf ([4]; male, rat, plasma, iv, 10 mg/kg tanshinone IIA equivalent, tail vein, read-out: MRT0–∞): 3.53 ± 0.63 h
Compound: Cc1coc2c1C(=O)C(=O)c1c-2ccc2c1CCCC2(C)C [Free TanIIA, Tanshinone IIA]
half-life [1]: short half-life
Apoptotic rate (early + late apoptosis) (HepG2 cells [5]): 78.34%
S phase distribution (HepG2 cells [6]): 50.53%
Solubility in water [7]: insolubility in water
